Legend:
Phytophthora infestans = experiment: whole plant or invertebrate; format: in vivo; conditions: Late blight on tomato; control value class
Plasmopara viticola = experiment: Test Example G: Downy mildew on vine; conditions: Downy mildew on vine; 250 ppm spray, 7 to 10 days after inoculation
[1] = system: Colletotrichum orbiculare; experiment: Test Example H: Anthracnose on cucumber; conditions: Anthracnose on cucumber; 250 ppm spray, 6 to 10 days after inoculation
Description: Seeds of a test plant (cucumber variety: Sagami Hanjiro) were planted and cultivated until the first leaf appeared. In the test, the inventive compounds were dissolved into dimethyl sulfoxide-methanol mixture solution (volume ratio: 9/1), and the resultant solutions were diluted with well water to a concentration of 250 ppm to obtain the drug solutions. The drug solutions were sprayed to the test plant (2.5 ml/pot). After the drug solutions dried, a conidial suspension (2-4×10^5 conidia/ml) of Colletotrichum orbiculare was inoculated to the plant by spraying. After the inoculation, the plant was kept in a mist chamber at room temperature of 20 to 23° C. for about 24 hours to promote the onset of disease. The degrees of disease development were investigated 6 to 10 days after the inoculation, and the effectiveness of the drug solutions was evaluated.
In Test Examples described above, the degrees of disease development were evaluated in increments of 0.05 from 0 (as no incidence of disease) to 3 (as the degree of disease development in an untreated plant group). Further, control values were calculated using the following equation based on the degree of disease development.
n=Degree of disease development in each treated group
In the table, H: more than 50% control value, L: 50% or less control value, and nt: not tested.

Puccinia recondita = experiment: Test Example E: Brown rust on wheat; format: in vivo; conditions: Brown rust on wheat; control value class
Alternaia brassicicola = experiment: Test Example C: Alternaria sooty spot on cabbage; format: in vivo; conditions: Alternaria sooty spot on cabbage; control value class
Excerpt: Seeds of a test plant (cabbage variety: Shikidori) were planted and cultivated until the cotyledons extended.
<Control Value> Control value=100{1−(n/3)}

[2] = system: Blumeria graminis f. sp. hordei; experiment: Test Example D: Powdery mildew on barley; conditions: Powdery mildew on barley; control value class
Botrytis cinerea = experiment: Test Example B: Gray mold on tomato; conditions: Gray mold on tomato; control value class
Magnaporthe grisea = experiment: whole plant or invertebrate; format: in vivo; conditions: Blast on rice; control value class

CCCCCCc1cc(Br)c(=O)n(CC)c1-c1ccc(F)cc1Cl [compound 293]
L (50% or less control value): Test F control value (Phytophthora infestans) | Test G control value (Plasmopara viticola) | Test H control value [1] | Test E control value (Puccinia recondita) | Test B control value (Botrytis cinerea) | Test A control value (Magnaporthe grisea)
H (more than 50% control value): Test C control value (Alternaia brassicicola) | Test D control value [2]

CCn1c(-c2ccc(F)cc2Cl)c(C=O)cc(Cl)c1=O [compound 294]
H (more than 50% control value): Test G control value (Plasmopara viticola) | Test E control value (Puccinia recondita) | Test C control value (Alternaia brassicicola) | Test B control value (Botrytis cinerea)
L (50% or less control value): Test F control value (Phytophthora infestans) | Test H control value [1] | Test D control value [2] | Test A control value (Magnaporthe grisea)

C=Cc1cc(Cl)c(=O)n(CC)c1-c1ccc(F)cc1Cl [compound 295]
L (50% or less control value): Test G control value (Plasmopara viticola) | Test H control value [1] | Test A control value (Magnaporthe grisea)
H (more than 50% control value): Test F control value (Phytophthora infestans) | Test E control value (Puccinia recondita) | Test C control value (Alternaia brassicicola) | Test D control value [2] | Test B control value (Botrytis cinerea)

CC(C)CC1=C(c2c(F)cc(F)cc2F)N(CC(F)F)C(=O)CC1 [compound 296]
L (50% or less control value): Test F control value (Phytophthora infestans) | Test G control value (Plasmopara viticola) | Test H control value [1] | Test D control value [2] | Test B control value (Botrytis cinerea) | Test A control value (Magnaporthe grisea)
H (more than 50% control value): Test E control value (Puccinia recondita) | Test C control value (Alternaia brassicicola)

CC(C)Cc1ccc(=O)n(CC(F)F)c1-c1c(F)cc(F)cc1F [compound 297]
L (50% or less control value): Test F control value (Phytophthora infestans) | Test H control value [1] | Test A control value (Magnaporthe grisea)
H (more than 50% control value): Test G control value (Plasmopara viticola) | Test E control value (Puccinia recondita) | Test C control value (Alternaia brassicicola) | Test D control value [2] | Test B control value (Botrytis cinerea)

CCn1c(-c2ccc(F)cc2Cl)c(CC=O)cc(Cl)c1=O [compound 298]
H (more than 50% control value): Test H control value [1] | Test C control value (Alternaia brassicicola)
L (50% or less control value): Test F control value (Phytophthora infestans) | Test G control value (Plasmopara viticola) | Test E control value (Puccinia recondita) | Test D control value [2] | Test B control value (Botrytis cinerea) | Test A control value (Magnaporthe grisea)

CC=Cc1cc(Cl)c(=O)n(CC)c1-c1ccc(F)cc1Cl [compound 299]
L (50% or less control value): Test F control value (Phytophthora infestans) | Test A control value (Magnaporthe grisea)
H (more than 50% control value): Test G control value (Plasmopara viticola) | Test H control value [1] | Test E control value (Puccinia recondita) | Test C control value (Alternaia brassicicola) | Test D control value [2] | Test B control value (Botrytis cinerea)

CCn1c(-c2ccc(F)cc2Cl)c(C=C(Br)Br)cc(Cl)c1=O [compound 301]
L (50% or less control value): Test F control value (Phytophthora infestans) | Test G control value (Plasmopara viticola)
H (more than 50% control value): Test H control value [1] | Test E control value (Puccinia recondita) | Test C control value (Alternaia brassicicola) | Test D control value [2] | Test B control value (Botrytis cinerea) | Test A control value (Magnaporthe grisea)

C#Cc1cc(Cl)c(=O)n(CC)c1-c1ccc(F)cc1Cl [compound 302]
L (50% or less control value): Test F control value (Phytophthora infestans) | Test G control value (Plasmopara viticola) | Test C control value (Alternaia brassicicola) | Test D control value [2]
H (more than 50% control value): Test H control value [1] | Test E control value (Puccinia recondita) | Test B control value (Botrytis cinerea) | Test A control value (Magnaporthe grisea)

C#Cc1cc(Cl)c(=O)n(CC)c1-c1c(F)cc(F)cc1F [compound 303]
H (more than 50% control value): Test H control value [1] | Test E control value (Puccinia recondita) | Test C control value (Alternaia brassicicola) | Test D control value [2] | Test B control value (Botrytis cinerea)
L (50% or less control value): Test F control value (Phytophthora infestans) | Test G control value (Plasmopara viticola) | Test A control value (Magnaporthe grisea)

CC(C)Cc1cc(Cl)c(=O)n(CC(F)F)c1-c1c(F)cc(F)cc1F [compound 304]
H (more than 50% control value): Test H control value [1] | Test E control value (Puccinia recondita) | Test C control value (Alternaia brassicicola) | Test D control value [2] | Test B control value (Botrytis cinerea) | Test A control value (Magnaporthe grisea)
L (50% or less control value): Test F control value (Phytophthora infestans) | Test G control value (Plasmopara viticola)

CC(C)Cc1cc(Br)c(=O)n(CC(F)F)c1-c1c(F)cc(F)cc1F [compound 305]
H (more than 50% control value): Test H control value [1] | Test E control value (Puccinia recondita) | Test C control value (Alternaia brassicicola) | Test D control value [2] | Test B control value (Botrytis cinerea) | Test A control value (Magnaporthe grisea)
L (50% or less control value): Test F control value (Phytophthora infestans) | Test G control value (Plasmopara viticola)

CCn1c(-c2c(F)cc(F)cc2F)c(CC(C)C)cc(C)c1=O [compound 306]
L (50% or less control value): Test F control value (Phytophthora infestans)
H (more than 50% control value): Test G control value (Plasmopara viticola) | Test H control value [1] | Test E control value (Puccinia recondita) | Test C control value (Alternaia brassicicola) | Test D control value [2] | Test B control value (Botrytis cinerea) | Test A control value (Magnaporthe grisea)

Cc1cc(CC(C)C)c(-c2c(F)cc(F)cc2F)n(CC(F)F)c1=O [compound 307]
L (50% or less control value): Test F control value (Phytophthora infestans) | Test G control value (Plasmopara viticola) | Test A control value (Magnaporthe grisea)
H (more than 50% control value): Test H control value [1] | Test E control value (Puccinia recondita) | Test C control value (Alternaia brassicicola) | Test D control value [2] | Test B control value (Botrytis cinerea)

CCn1c(-c2c(F)cc(F)cc2F)c(COc2ccccc2)cc(Cl)c1=O [compound 308]
L (50% or less control value): Test F control value (Phytophthora infestans) | Test G control value (Plasmopara viticola) | Test H control value [1] | Test E control value (Puccinia recondita) | Test D control value [2] | Test B control value (Botrytis cinerea)
H (more than 50% control value): Test C control value (Alternaia brassicicola) | Test A control value (Magnaporthe grisea)

CCn1c(-c2c(F)cc(F)cc2F)c(C(Cl)=CCl)cc(Cl)c1=O [compound 309]
H (more than 50% control value): Test G control value (Plasmopara viticola) | Test H control value [1] | Test E control value (Puccinia recondita) | Test C control value (Alternaia brassicicola) | Test D control value [2] | Test B control value (Botrytis cinerea) | Test A control value (Magnaporthe grisea)
L (50% or less control value): Test F control value (Phytophthora infestans)

CCn1c(-c2c(F)cc(F)cc2F)c(COc2ccc(OC)cc2)cc(Cl)c1=O [compound 310]
H (more than 50% control value): Test G control value (Plasmopara viticola) | Test E control value (Puccinia recondita) | Test C control value (Alternaia brassicicola) | Test B control value (Botrytis cinerea)
L (50% or less control value): Test F control value (Phytophthora infestans) | Test H control value [1] | Test D control value [2] | Test A control value (Magnaporthe grisea)

Reference: US11147272B2, “Pyridone compounds and agricultural and horticultural fungicides comprising the same as active ingredients” (MITSUI CHEMICALS AGRO, INC., priority 2017, dated 2021)
